Measurements as given in publication PMC5882934, “Acute metabolic actions of the major polyphenols in chamomile: an in vitro mechanistic study on their potential to attenuate postprandial hyperglycaemia” (Scientific Reports, 2018).
In brackets after ≈: the same amount, converted by molar mass. Where two headings read alike, the source gives them in different places.

Assays:
[1] = molecular target: T1, human α-amylase (Homo sapiens, UniProt P0DUB6); test: human α-amylase inhibition assay; type: biochemical; settings: for maximum inhibition of human α-amylase: individual (poly)phenol, maximum value of dose response, p < 0.05; for Ki: Dixon plot, intercept = -Ki
T1 sequence (P0DUB6 16-511): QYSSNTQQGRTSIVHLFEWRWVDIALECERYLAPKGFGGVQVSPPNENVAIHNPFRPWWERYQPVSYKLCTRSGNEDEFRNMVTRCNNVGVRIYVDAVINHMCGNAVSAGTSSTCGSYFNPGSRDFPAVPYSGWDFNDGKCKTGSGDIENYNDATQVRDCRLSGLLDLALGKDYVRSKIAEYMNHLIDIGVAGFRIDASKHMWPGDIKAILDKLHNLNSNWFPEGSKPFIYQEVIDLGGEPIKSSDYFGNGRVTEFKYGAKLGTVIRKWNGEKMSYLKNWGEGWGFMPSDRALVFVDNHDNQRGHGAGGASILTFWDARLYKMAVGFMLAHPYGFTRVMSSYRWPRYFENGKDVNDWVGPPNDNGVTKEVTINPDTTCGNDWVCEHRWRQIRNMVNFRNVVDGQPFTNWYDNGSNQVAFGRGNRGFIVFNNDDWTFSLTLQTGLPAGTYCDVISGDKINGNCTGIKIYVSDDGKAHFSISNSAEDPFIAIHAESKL
Experimental: The human α-amylase and rat α-glucosidase inhibition assays were performed under optimised conditions as previously reported[3],[18],[52]. The ChE stock solution was dissolved in DMSO while the individual (poly)phenols were prepared in a water-EtOH solution (50:50, v/v).

[2] = tested on: Caco-2/TC7 cells; test: D-[U-14C]-glucose transport across Caco-2/TC7 cell monolayers in the presence of Na+; type: cell-based; settings: for effect on D-[U-14C]-glucose transport: data not shown
Source text: (§1) Caco-2/TC7 cells transported 0.08 mmol of D-[U-^14C]-glucose from the apical to the basolateral compartment across the cell monolayers in the presence of Na^+, where the sugar transporter Na^+/glucose co-transporter 1 (SGLT1) is active, in addition to the facilitated transporters GLUT2 and GLUT5 (Fig. 6A-1). D-[U-^14C]-sucrose must first be hydrolysed by brush border sucrase and the resulting products, fructose and glucose, are transported into and across the cells.
(§2) Caco-2/TC7 cells were cultured and transport experiments performed as fully described before.

[3] = tested on: Caco-2/TC7 cells; test: D-[U-14C]-sucrose transport across Caco-2/TC7 cell monolayers; type: cell-based; settings: data not shown
Source text: as §1, §2

[4] = tested on: Caco-2/TC7 cells; test: D-[U-14C]-fructose transport across Caco-2/TC7 cell monolayers; type: cell-based; settings: data not shown
Source text: as §1, §2

[5] = enzymatic hydrolysis by digestive hydrolytic enzymes (hesperidinase, acetone rat intestinal extract); type: in vitro ADME
Experimental: Supplementary S3. Enzymatic hydrolysis of Kaempferol 3-O-glucoside (positive control) and (E)-MCAG. (A) Kaempferol 3-O-glucoside standard (300 µM). (B) Kaempferol standard (100 uM). (C) Kaempferol 3-O-glucoside hydrolysed with hesperidinase. (D) Kaempferol 3-O-glucoside hydrolysed with acetone rat intestinal extract. (E) Kaempferol 3-O-glucoside hydrolysed with pancreatin. (F) (E)-MCAG (500 µM) hydrolysed with hesperidinase. (G) (E)-MCAG (500 µM) hydrolysed hydrolysed with acetone rat intestinal extract. The enzymatic hydrolysis were conducted with 50 mg/mL of the respective enzyme for 3 h at 37 °C.

[6] = molecular target: T1, human α-amylase; set-up: method as in doi:10.1016/j.jff.2015.10.003; settings: strong (poly)phenol inhibitors, arbitrarily defined; cited from earlier work
[7] = molecular target: maltase-glucoamylase; set-up: method as in PMID 18681440; settings: cited from earlier work
[8] = molecular target: sucrase-isomaltase; set-up: method as in PMID 18681440; settings: cited from earlier work
[9] = set-up: method as in PMID 12086760, PMID 12876091; settings: population with impaired glucose tolerance; cited from earlier work
[10] = molecular target: T2, GLUT2 (Homo sapiens, UniProt P11168); test: D-[U-14C]-glucose transport across Caco-2/TC7 monolayers under Na+-free conditions (only GLUT2 active); type: cell-based; settings: for apparent increase in inhibitory activity under Na+-free conditions: versus Na+ present
T2 construct: endogenous in cells; host or cells: Caco-2/TC7
T2 sequence (P11168 1-524): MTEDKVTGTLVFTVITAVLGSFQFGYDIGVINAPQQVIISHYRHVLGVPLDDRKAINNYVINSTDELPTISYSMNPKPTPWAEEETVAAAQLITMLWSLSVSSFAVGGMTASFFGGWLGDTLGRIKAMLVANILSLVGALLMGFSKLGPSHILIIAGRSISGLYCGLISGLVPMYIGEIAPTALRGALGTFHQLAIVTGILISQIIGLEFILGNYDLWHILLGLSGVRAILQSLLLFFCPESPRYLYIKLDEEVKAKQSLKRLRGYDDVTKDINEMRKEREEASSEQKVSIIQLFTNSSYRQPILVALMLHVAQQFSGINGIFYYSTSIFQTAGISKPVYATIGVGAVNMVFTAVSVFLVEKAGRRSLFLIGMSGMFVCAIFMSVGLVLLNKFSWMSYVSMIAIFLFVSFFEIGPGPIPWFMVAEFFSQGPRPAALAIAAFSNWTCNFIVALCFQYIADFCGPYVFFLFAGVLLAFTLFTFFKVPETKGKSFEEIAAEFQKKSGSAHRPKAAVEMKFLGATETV
Source text: To dissect the mechanism of inhibition of glucose transport, we conducted D-[U-^14C]-glucose transport experiments under Na^+-free conditions where only GLUT2, and not SGLT1, is active. […] When tested in combination under Na^+-free conditions, apigenin 7-O-glucoside and apigenin (Fig. 6C-3) were responsible for ~80% of the inhibitory activity observed by the whole ChE (p < 0.05) (Fig. 6C-4).
Since the main inhibition we found was on GLUT2, we investigated the binding affinities of apigenin and apigenin 7-O-glucoside. […] This was also confirmed by functional assays where the rate of D-[U-^14C]-glucose transport under Na^+-free conditions was the same from apical to basolateral compartments and vice versa (Fig. 7B). Inhibition constants for the exofacial glucose transporter inhibitor 4,6-O-ethylidene glucose and the endofacial glucose transporter inhibitor cytochalasin B on basolateral to apical D-[U-^14C]-glucose transport were compared to those for apigenin and apigenin 7-O-glucoside (Fig. 7C–E). […] This comparison is made assuming that the position of GLUT2 is the same when facing the apical and the intracellular space, which seems to hold based on the rate of D-[U-^14C]-glucose transport across the monolayers in both directions.
as §2

[11] = solubility limit in enzyme assay; type: physicochemical
[12] = molecular target: yeast α-glucosidase; settings: cited from earlier work
[13] = tested on: GLUT1; set-up: method as in PMID 26238658; settings: cited from earlier work
[14] = tested on: GLUT1; set-up: method as in PMID 24932809; settings: cited from earlier work
[15] = tested on: Caco-2/TC7 cells; test: conversion of apigenin 7-O-glucoside to apigenin by differentiated Caco-2/TC7 cells; type: in vitro ADME; settings: 150 µM, 25 and 60 min
Experimental: Glycosylated (poly)phenols can be hydrolysed by luminal β-glucosidase enzymes, such as lactase phlorizin hydrolase[19],[20], present in the brush border of the enterocytes, resulting in the release of the aglycone. Therefore, we explored the possibility whether the inhibition observed by apigenin-7-O-glucoside was due to the presence of apigenin after enzymic hydrolysis. Caco-2/TC7 cells were incubated with 150 µM apigenin 7-O-glucoside for 25 and 60 min. In vitro conversion of apigenin 7-O-glucoside to apigenin in Caco2/TC7 cells was negligible (Supplementary S5) confirming that apigenin 7-O-glucoside can interact directly with GLUT2 transporter protein.
Cells were seeded at 2.4 × 10^5 cells/well on 6-well plates (Corning, Appleton Woods, UK) and cultured for 21–23 d at 37 °C as described above. Cells were exposed to 150 μM of apigenin 7-O-glucoside for 25 and 60 min. After the treatment the medium was collected and analysed by HPLC as detailed above.

[16] = tested on: rat intestinal α-glucosidase; set-up: method as in PMID 28422509; settings: p-nitrophenyl-glucopyranoside substrate; cited from earlier work

In the case of COc1ccc(/C=C/C(=O)O)c(O[C@@H]2O[C@H](CO)[C@@H](O)[C@H](O)[C@H]2O)c1 [(E)-MCAG, (E)−2-β-D-Glucopyranosyloxy-4-methoxycinnamic acid], the “maximum inhibition of human α-amylase” value [1] is reported as ~ 20%, the “effect on D-[U-14C]-glucose transport” value [2] is reported as “no effect” and the “effect on D-[U-14C]-sucrose transport” value [3] is reported as “no effect”. For the same compound, the “effect on D-[U-14C]-fructose transport” value [4] was “no effect”, the “substrate for rat intestinal enzymes” value [5] was “not a substrate” and the “resistance to digestive hydrolytic enzymes” value ([5]; 500 µM, 50 mg/mL enzyme, 3 h at 37 °C) was “resistant”.
In the case of O=c1c(O)c(-c2ccc(O)c(O)c2)oc2cc(O)cc(O)c12 [quercetin], the IC50 [6] is listed as under 100 µM, the IC50 [7] is listed as 216 µM and the IC50 [8] is listed as 71 µM.
In the case of O=c1cc(-c2ccc(O)c(O)c2)oc2cc(O)cc(O)c12 [luteolin], the IC50 [6] is given as under 100 µM.
For COc1ccc(/C=C\C(=O)O)c(OC2O[C@H](CO)[C@@H](O)[C@H](O)[C@H]2O)c1 (stereo partly drawn) [(Z)-MCAG, (Z)-2-D-Glucopyranosyloxy-4-methoxycinnamic acid], the “maximum inhibition of human α-amylase” value [1] was ~ 25%, the “effect on D-[U-14C]-glucose transport” value [2] was “no effect” and the “effect on D-[U-14C]-sucrose transport” value [3] was “no effect”. The “effect on D-[U-14C]-fructose transport” value [4] was “no effect”.
In the case of C[C@H]1O[C@H](O[C@H]2[C@H](O)[C@@H](O)[C@@H](O[C@H]3[C@H](O)[C@@H](O)C(O)O[C@@H]3CO)O[C@@H]2CO)[C@H](O)[C@@H](O)[C@@H]1N[C@H]1C=C(CO)[C@@H](O)[C@H](O)[C@H]1O (some centres unmarked) [acarbose], the “reduction of the risk of cardiovascular events” value [9] is listed as 49% and the “reduction of the risk of type 2 diabetes” value [9] is listed as 25%.
In the case of O=c1cc(-c2ccc(O)cc2)oc2cc(O)cc(O)c12 [apigenin], the “fold increase in inhibitory activity on human α-amylase versus apigenin 7-O-glucoside” value [1] is reported as ~ 10 fold, the Ki [1] is reported as 146 ± 39 µM and the “fold higher effect than apigenin 7-O-glucoside at equivalent concentrations” value ([2]; D-[U-14C]-glucose and D-[U-14C]-sucrose transport, apigenin 50 µM) is reported as 3 fold. For the same compound, the “fold lower inhibition of transport basolateral to apical versus apical to basolateral” value (“fold lower inhibition … to basolateral” for short) ([10]; Na+-free) was 3 fold, the “apparent increase in inhibitory activity under Na+-free conditions” value [10] was ~ 50% and the solubility [11] was “limited solubility prohibited testing at concentrations >50 µM”. The IC50 [12] was 22 µM, the “IC50 yeast α-glucosidase” value [12] was 25.5 µg/mL (≈ 94.4 µM) and the “inhibition of yeast α-glucosidase” value ([12]; p-nitrophenyl-glucopyranoside substrate) was “did not inhibit”. For the same compound, the GLUT1 expression [13] was “lowered” and the GLUT1 expression [14] was “lowered”.
For O=c1ccc2cc(O)c(O)cc2o1 [esculetin], the IC50 [7] is given as 534 µM and the IC50 [8] is given as 72 µM.
With C=C1[C@@H](C)[C@H]2[C@H](Cc3ccccc3)NC(=O)[C@]23OC(=O)/C=C/[C@H](O)CCC[C@@H](C)C/C=C/[C@H]3[C@@H]1O [Cytochalasin B, cytochalasin B, reference compound] the IC50 ([10]; a → b IC50, Na+-free, apical to basolateral) was 2.3 µM and the IC50 ([10]; b → a IC50, Na+-free, basolateral to apical) was 7.6 µM.
In the case of O=C(O[C@@H]1Cc2c(O)cc(O)cc2O[C@@H]1c1cc(O)c(O)c(O)c1)c1cc(O)c(O)c(O)c1 [EGCG], the IC50 [6] is given as under 100 µM.
For O=c1cc(-c2ccc(O)cc2)oc2cc(O[C@@H]3O[C@H](CO)[C@@H](O)[C@H](O)[C@H]3O)cc(O)c12 [apigenin 7-O-glucoside, apigenin-7-O-glucoside], the Ki [1] was 17 ± 4 µM, the “fold lower inhibition of human α-amylase than apigenin” value ([1]; in vitro results) was ~ 10 fold and the “fold lower inhibition … to basolateral” value ([10]; Na+-free) was 3 fold. For the same compound, the “apparent increase in inhibitory activity under Na+-free conditions” value [10] was ~ 50%, the “in vitro conversion to apigenin” value [15] was “negligible” and the “IC50 yeast α-glucosidase” value [12] was 29.7 µg/mL (≈ 68.7 µM). The “inhibition of rat intestinal α-glucosidase activity” value [16] was “inhibited”.
In the case of CC1OC[C@H]2O[C@H](O)[C@H](O)[C@@H](O)[C@@H]2O1 (some centres unmarked) [4,6-ethylidine glucose, 4,6-O-ethylidene glucose, reference compound], the “fold lower inhibition … to basolateral” value ([10]; Na+-free) is reported as 3 fold and the IC50 ([10]; Na+-free, apical to basolateral, read-out: a → b IC50) is reported as 15000 µM.
